28 molecules from US8785499B2 (priority 2009, dated 2014) can be followed below.

The test system of one experiment is B. subtilis 168. The experiment in a line: microbe, parasite or virus in culture. The format is cell-based. Conditions: Bacillus subtilis, 168, read-out: MIC50 B. subt.
Another experiment deals with B. anthracis sterne. The experiment in a line: microbe, parasite or virus in culture. The class given is cell-based. Conditions: Bacillus anthracis, read-out: MIC50 B. anth.
Experiment [1] relates to E. coli K-12 BW25113 (ΔnadA). Briefly: microbe, parasite or virus in culture. The class given is cell-based, Escherichia coli. Conditions: for MIC50: Escherichia coli, BW25113, read-out: MIC50 E. coli.
The test system of experiment [2] is E. coli ΔnadA, nadD+ (overexpressing NadD). The experiment in a line: Antibacterial assay: on-target versus off-target activity (NadD overexpression vs gapA control). Conditions: E. coli overexpressing nadD vs gapA control strain. The format is cell-based, Escherichia coli.
Another experiment addresses baNadD (Bacillus anthracis, UniProt C3L5T6). The experiment in a line: biochemical. The class given is biochemical. Conditions: for inhibition at 50 µM: read-out: INHIBITION (%) B. anthracis.
The target in experiment [3] is T1, ecNadD (Escherichia coli (strain K12), UniProt P0A752). Briefly: biochemical. Conditions: apparent value.
The target in experiment [4] is T1, ecNadD. The experiment in a line: biochemical. The class given is biochemical. Conditions: for inhibition at 100 µM: read-out: INHIBITION (%) E. coli.

≈ marks a conversion by molar mass, not a printed value. Where only a bound is given, the exact number is not on record here.

baNadD, sequence (C3L5T6 whole entry, looked up): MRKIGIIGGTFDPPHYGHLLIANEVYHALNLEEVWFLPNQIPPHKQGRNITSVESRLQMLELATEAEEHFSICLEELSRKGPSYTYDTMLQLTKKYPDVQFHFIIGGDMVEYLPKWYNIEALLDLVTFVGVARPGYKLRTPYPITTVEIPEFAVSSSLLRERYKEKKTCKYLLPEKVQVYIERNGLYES

Regarding `Nc1c(C(=O)Nc2ccc(F)cc2Cl)sc2nc(-c3ccc(F)cc3)ccc12` [03_23], the MIC50 with B. subtilis 168 is 80 µM (≈ 33.3 µg/mL); in the experiment on B. anthracis sterne, 80 µM (≈ 33.3 µg/mL); in experiment [1] it was 40 µM (≈ 16.6 µg/mL). In experiment [1], the “antibacterial activity against E. coli (qualitative)” value is “relatively strong antibacterial activity”.

`Nc1c(C(=O)Nc2ccc(Cl)cc2F)sc2nc(-c3cccs3)ccc12` [03_15]: the “effect of NadD overexpression on antibacterial activity (on-target vs off-target)” value in experiment [2] is on record as “partially or totally suppresses action”. For the same molecule, the MIC50 in the experiment with B. subtilis 168 came out at 10 µM (≈ 4.04 µg/mL); with B. anthracis sterne it was 10 µM (≈ 4.04 µg/mL); in experiment [1] it was 160 µM (≈ 64.6 µg/mL).

`O=C(CCCC(=O)Nc1ccc(Br)cc1)N/N=C/c1c2ccccc2cc2ccccc12` [01_03]: in experiment [2], the “effect of NadD overexpression on antibacterial activity (on-target vs off-target)” value is “partially or totally suppresses action”. Further, the results for the MIC50 (in the experiment on B. subtilis 168; in the experiment with B. anthracis sterne; in experiment [1]) were 10 µM (≈ 4.88 µg/mL), 15 µM (≈ 7.33 µg/mL) and greater than 80 µM, respectively.

One may read the inhibition as the change of the read-out against control, counted positive when it falls. As to `Nc1c(C(=O)Nc2cccc(F)c2)sc2nc(-c3cccs3)ccc12` [03_02], the MIC50 with B. subtilis 168 was found to be 40 µM (≈ 14.8 µg/mL); in the experiment with B. anthracis sterne, 80 µM (≈ 29.6 µg/mL); in experiment [1], 160 µM (≈ 59.1 µg/mL). Also, on baNadD, the inhibition at 50 µM came out at 100%.

On to `Nc1c(C(=O)Nc2cccc(Cl)c2)sc2nc(-c3ccncc3)ccc12` [03_17], for which the MIC50 is greater than 160 µM in the experiment on B. subtilis 168, greater than 160 µM in the experiment with B. anthracis sterne and 80 µM (≈ 30.5 µg/mL) in experiment [1]. For the same molecule, the inhibition at 50 µM on baNadD is 64%.

Regarding `O=C(CCC(=O)Nc1cccc(Cl)c1)N/N=C/c1c2ccccc2cc2ccccc12` [01_02], the Ki was determined as 5 ± 1 µM on ecNadD [3] (substrate ATP varied, 0.5 mM NaMN fixed) and 8 ± 3 µM at ecNadD [3] (substrate NaMN varied, 0.5 mM ATP fixed). Besides, the MIC50 in experiment [1] is greater than 80 µM.

Consider `Nc1c(C(=O)Nc2cc(Cl)ccc2Cl)sc2nc(-c3cccs3)ccc12` [03_05], for which the MIC50 in the experiment on B. subtilis 168 amounted to 10 µM (≈ 4.2 µg/mL); with B. anthracis sterne, 10 µM (≈ 4.2 µg/mL); in experiment [1], 80 µM (≈ 33.6 µg/mL).

Turning to `COC(=O)c1ccc(N/C=C2\C(=O)Nc3ccccc32)cc1` [15_11], the figures for the MIC50 (in the experiment on B. subtilis 168; in experiment [1]) were less than 50 µM and less than 100 µM, respectively.

Consider `Cc1ccc(NC(=S)NC(=O)c2ccc(F)cc2)nc1` [compound 105], for which, on baNadD, the “[…]. anthracis” value was found to be 51%. In addition, the “[…]. coli” value on ecNadD [4] is recorded as 9%.

As a reminder, the IC50 is the concentration that inhibits the measured activity by half. The low end stands for greater potency in that assay, the high end for weaker potency in that assay. With `Cc1cccc(N/C=C2\C(=O)Nc3ccccc32)c1` [15_28], the IC50 on baNadD (IC50 baNadD) and against ecNadD [4] (IC50 ecNadD) was greater than 200 µM each time. The inhibition at 50 µM on baNadD is 24%. For the same molecule, the inhibition at 100 µM at ecNadD [4] is 8%.

Regarding `O=C(CCN1C(=O)c2ccccc2C1=O)NCc1ccncc1` [compound 302], the “[…]. anthracis” value at baNadD is 0%. In addition, the “[…]. coli” value on ecNadD [4] stood at 0%.

On to `CC(N/C=C1\C(=O)Nc2ccccc21)c1ccccc1` (stereo not shown) [15_39], for which, on baNadD, the inhibition at 50 µM was determined as 18%. Besides, on ecNadD [4], the inhibition at 100 µM was determined as 3%.

Turning to `COc1cc(Br)cc(/C=C2/SC(=S)NC2=O)c1O` [compound 037], the “[…]. anthracis” value on baNadD is given as 0%. In addition, at ecNadD [4], the “[…]. coli” value is 20%.

Consider `NS(=O)(=O)c1ccc(CCNC(=O)c2ccc([NH2+][O-])cc2)cc1` [compound 213], for which the “[…]. anthracis” value at baNadD came to 54%. Besides, the “[…]. coli” value on ecNadD [4] stood at 0%.

As for `O=S(=O)(Nc1ccc(Br)c(Cl)c1)c1cccs1` [compound 203], on baNadD, the “[…]. anthracis” value was 0%. The “[…]. coli” value on ecNadD [4] amounted to 0%.

Take `O=C(Nc1ccc(NC(=O)c2cccs2)cc1)c1ccccc1` [compound 020]: on baNadD, the “[…]. anthracis” value was 0%. Moreover, at ecNadD [4], the “[…]. coli” value was 26%.

Take `Cc1ccc(C2C(C#N)=C(N)Oc3ncnc(O)c32)cc1` (stereo not shown) [compound 259]: the “[…]. anthracis” value on baNadD was determined as 0%. For the same molecule, the “[…]. coli” value at ecNadD [4] was found to be 0%.

For the molecule `O=C(O)/C=C\C(=O)Nc1ccc(Br)c(Cl)c1` [compound 131], the “[…]. anthracis” value at baNadD is on record as 0%. In addition, the “[…]. coli” value at ecNadD [4] is 7%.

For `O=C(O)CN1C(=O)CC(Cc2ccc(Cl)cc2)C1=O` (stereo not shown) [compound 168], at baNadD, the “[…]. anthracis” value is 0%. Further, on ecNadD [4], the “[…]. coli” value turned out to be 3%.

On to `NS(=O)(=O)c1ccc(NC(=S)Nc2ccc(Cl)cc2F)cc1` [compound 084], for which the “[…]. anthracis” value on baNadD was determined as 0%. The “[…]. coli” value on ecNadD [4] worked out at 11%.

As to `Nc1nnnn1/N=C/c1ccccc1` [compound 278], the “[…]. anthracis” value on baNadD was found to be 0%. Also, the “[…]. coli” value on ecNadD [4] came to 0%.

Consider `O=C(O)c1cccc(CSc2ncccn2)c1` [compound 180], for which, at baNadD, the “[…]. anthracis” value is 15%. In addition, the “[…]. coli” value at ecNadD [4] is reported as 3%.

As for `CSc1ccc(/C=N/c2ccc(S(N)(=O)=O)cc2)cc1` [compound 076], the “[…]. anthracis” value on baNadD is given as 0%. For the same molecule, the “[…]. coli” value on ecNadD [4] was found to be 12%.

As for `NS(=O)(=O)c1ccc(Nc2nc(-c3ccc(O)c(O)c3)cs2)cc1` [compound 010], at baNadD, the “[…]. anthracis” value was 89%. Besides, the “[…]. coli” value at ecNadD [4] was 32%.

Regarding `Nc1nonc1C(=O)NCCNS(=O)(=O)Cc1ccccc1` [compound 051], the “[…]. anthracis” value at baNadD came to 0%. For the same molecule, the “[…]. coli” value on ecNadD [4] is on record as 16%.

With `Nc1c(C(=O)Nc2ccc(F)c(F)c2)sc2nc(-c3ccncc3)ccc12` [compound 287], on baNadD, the “[…]. anthracis” value was found to be 0%. On ecNadD [4], the “[…]. coli” value was 0%.

As for `Cc1ccc(CN/C=C2\C(=O)Nc3ccccc32)cc1` [15_38], at baNadD, the inhibition at 50 µM amounted to 17%. The inhibition at 100 µM on ecNadD [4] is 3%.

Regarding `O=C(O)CCC(=O)NNC(=O)c1cccc(O)c1` [compound 017], on baNadD, the “[…]. anthracis” value is 0%. On ecNadD [4], the “[…]. coli” value is reported as 27%.
